Holding throughout (assay type): biochemical
One assay concerns the target rat MAO-A (Rattus norvegicus (Rat), UniProt P21396). Nature of the assay: Rat MAO-A assay (Amplex Red fluorescence, rat liver mitochondria). The settings on record: deprenyl-pretreated, substrate p-tyramine 300 μM. The procedure: (§1) The MAO-A and MAO-B enzyme activity of the compounds, according to the present invention, was estimated following an assay adapted from the method described by Holt et al. (Anal. Biochem. 244, 384-392, 1997). The MAO experiments were performed using a fluorescence-based detection of resorufin, obtained by a reaction of released from the biological sample hydrogen peroxide with 10-acetyl-3,7-dihydroxyphenoxazine (ADHP) in the presence of a peroxidase (horseradish peroxidase-coupled reaction, HRP). The inhibitory in vitro MAO activity of the compounds of general Formula I was investigated at rat and human MAO-A and MAO-B. To perform rat MAO-A and MAO-B experiments, a preliminary membrane preparation of mitochondrial-enriched rat livers isolated from male Sprague-Dawley rats (Harlan Sprague Dawley, Dublin, US) was required. As sources for recombinant human MAO-A and MAO-B enzymes were used microsomal products, prepared from baculovirus-infected insect cells expressing human MAO-A (Sigma-Aldrich, M7316) and human MAO-B (Sigma-Aldrich, M7441), respectively.
(§2) To estimate MAO inhibitory activity of the compounds of Formula I at rat and human MAO-A and MAO-B, the corresponding test compound was dissolved in 100% DMSO and subsequently added to the appropriate enzyme solution containing rat liver mitochondria (rat MAO-A and -B) or recombinant human protein (for determination of human MAO-A and -B) in sodium phosphate buffer. The test sample was incubated for 30 min at room temperature prior to the addition of Amplex Red reagent (Invitrogen A12214) using for the fluorescence-based measuring of MAO inhibitory activity. The enzymatic reaction was started by the addition of the substrate p-tyramine. The fluorescence measurements were performed over a period of 45 min using a microplate fluorescence reader (excitation at 544 nm and emission at 590 nm). IC50 values were determined from the inhibition curves obtained using different inhibitor concentrations in triplicate within the same experiment. A four-parameter logistic equation was used to fit the dose-response curves for test compounds using a computer program.
(§3) MAO-A and MAO-B enzymatic activity of the compounds was measured in 96-well-plates using a continuous fluorescence-based assay. This assay was adapted from the method described by Holt et al. (Anal. Biochem., 244, 384-392, 1997). The MAO experiments were performed using the commercial assay kit Amplex Red (Invitrogen A12214). The kit was stored frozen at ≦−20° C. and protected from light before use. The Amplex Red MAO assay kit was used for the detection of H2O2 released from the biological sample. Subsequently, a reaction of 10-acetyl-3,7-dihydroxyphenoxazine (ADHP, Amplex Red reagent) with H2O2 in the presence of a peroxidase (horse-radish peroxidase-coupled reaction, HRP) led to the production of resorufin. The quantification of hydrogen peroxide released from the biological sample and the subsequent production of resorufin was monitored using a fluorescence microplate reader (Holt et al., Anal. Biochem., 244, 384-392, 1997). To ensure an optimal efficiency of the Amplex Red reagent, the MAO assay's were performed at pH 7.4.
MAO enzyme-containing mitochondrial-enriched fractions of rat were obtained from male Sprague-Dawley rat livers (250-300 g, Harlan Sprague-Dawley, Dublin, Va., US). The livers (10.0 g) were dissected, given into 15.0 mL of an ice-cold 5.0 mM Hepes buffer (pH 7.4), containing 210 mM mannitol, 70 mM sucrose, 0.5 mM ethylene glycoltetraacetic acid (EGTA), and 2.0 mg/mL of bovine serum albumin (BSA), and homogenized using a glass/Teflon potter (10 ups and downs at 1100 rpm). After homogenization, the volume is adjusted to 100 mL with the same buffer. After a low speed centrifugation (10 min at 600 g; 4° C.), the supernatant was further centrifuged at 15,000 rpm for 5 min at +4° C. […]

The target in another assay is human MAO-A (Homo sapiens (Human), UniProt P21397). In words: Human MAO-A assay (Amplex Red fluorescence, recombinant enzyme). As to conditions: substrate p-tyramine 150 μM. The procedure: as §1, §2, §3
Recombinant human MAO-A enzyme, expressed in baculovirus-infected insect cells, was purchased from Sigma-Aldrich (M7316). The assay was carried out in 96-well plates in a final volume of 200 μL at room temperature. According to the experiment protocol, a solution of test compound (2.0 μL) in DMSO (100%) was added to 90.0 μL of protein solution (0.3 μg prot/well, containing 6.6 μL protein and […] phosphate buffer) and incubated for 30 min prior to the addition of 90 μL of freshly prepared Amplex Red reagent. The Amplex Red reagent was prepared as described for rat MAO-A. The enzymatic reaction was started by the addition of 20.0 μL/well of an aqueous solution of the substrate p-tyramine (150 μM final concentration). […]

The target of the next assay is human MAO-B (Homo sapiens (Human), UniProt P27338). In words: Human MAO-B assay (Amplex Red fluorescence, recombinant enzyme). As to conditions: substrate p-tyramine.
The next assay deals with rat MAO-B (Rattus norvegicus (Rat), UniProt P19643). Nature of the assay: Rat MAO-B assay (Amplex Red fluorescence, rat liver mitochondria). The settings on record: clorgyline-pretreated, substrate p-tyramine.

Experimental findings from patent US9738640B2, “Substituted benzamide derivatives as in vitro MAO-B inhibitors” (“NTZ LAB” Ltd., priority 2013, dated 2017) are described below.

Each structure is given as a SMILES string.

rat MAO-A, sequence (P21396 whole entry): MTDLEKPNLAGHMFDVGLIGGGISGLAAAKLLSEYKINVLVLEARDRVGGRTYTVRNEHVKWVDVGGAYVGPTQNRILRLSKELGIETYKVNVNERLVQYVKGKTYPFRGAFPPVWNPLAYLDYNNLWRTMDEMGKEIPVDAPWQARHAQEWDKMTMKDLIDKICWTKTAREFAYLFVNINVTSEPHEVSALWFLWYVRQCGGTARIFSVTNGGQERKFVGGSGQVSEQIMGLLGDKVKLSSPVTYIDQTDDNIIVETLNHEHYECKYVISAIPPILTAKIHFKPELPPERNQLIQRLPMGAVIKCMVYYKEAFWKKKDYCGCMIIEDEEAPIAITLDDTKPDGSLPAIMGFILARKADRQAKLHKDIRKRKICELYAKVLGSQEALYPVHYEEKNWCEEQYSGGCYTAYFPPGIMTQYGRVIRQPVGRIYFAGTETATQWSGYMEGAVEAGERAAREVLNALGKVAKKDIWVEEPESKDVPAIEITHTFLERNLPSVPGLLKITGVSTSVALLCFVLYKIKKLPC
human MAO-B, sequence (P27338 whole entry): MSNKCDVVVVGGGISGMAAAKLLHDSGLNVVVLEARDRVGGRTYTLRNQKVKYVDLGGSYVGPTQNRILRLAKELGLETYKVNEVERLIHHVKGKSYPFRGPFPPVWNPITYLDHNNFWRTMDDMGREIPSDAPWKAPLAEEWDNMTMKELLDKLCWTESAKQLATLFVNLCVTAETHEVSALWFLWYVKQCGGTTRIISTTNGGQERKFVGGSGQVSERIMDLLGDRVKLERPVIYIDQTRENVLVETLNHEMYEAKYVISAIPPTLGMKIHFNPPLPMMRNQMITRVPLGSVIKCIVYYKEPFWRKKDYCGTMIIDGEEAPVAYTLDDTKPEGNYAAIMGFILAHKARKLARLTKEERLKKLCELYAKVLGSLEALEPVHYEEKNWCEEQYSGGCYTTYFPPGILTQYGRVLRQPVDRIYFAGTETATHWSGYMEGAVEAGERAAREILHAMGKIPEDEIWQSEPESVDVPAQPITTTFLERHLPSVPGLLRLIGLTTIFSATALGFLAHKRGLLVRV
rat MAO-B, sequence (P19643 whole entry): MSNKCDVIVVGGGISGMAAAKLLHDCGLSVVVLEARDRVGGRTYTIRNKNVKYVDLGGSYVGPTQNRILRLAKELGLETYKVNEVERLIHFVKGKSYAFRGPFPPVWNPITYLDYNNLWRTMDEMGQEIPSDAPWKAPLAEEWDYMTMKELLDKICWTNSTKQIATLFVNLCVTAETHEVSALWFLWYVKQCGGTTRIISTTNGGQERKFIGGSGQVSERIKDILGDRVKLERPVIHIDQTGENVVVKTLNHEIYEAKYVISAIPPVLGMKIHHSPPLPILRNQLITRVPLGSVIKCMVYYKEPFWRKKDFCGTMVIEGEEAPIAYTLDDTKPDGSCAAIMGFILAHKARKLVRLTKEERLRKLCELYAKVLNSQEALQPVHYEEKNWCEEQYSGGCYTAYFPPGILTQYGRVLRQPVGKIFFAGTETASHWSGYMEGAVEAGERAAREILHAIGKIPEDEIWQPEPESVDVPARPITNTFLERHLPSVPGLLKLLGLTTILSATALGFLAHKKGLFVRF
human MAO-A, sequence (P21397 whole entry): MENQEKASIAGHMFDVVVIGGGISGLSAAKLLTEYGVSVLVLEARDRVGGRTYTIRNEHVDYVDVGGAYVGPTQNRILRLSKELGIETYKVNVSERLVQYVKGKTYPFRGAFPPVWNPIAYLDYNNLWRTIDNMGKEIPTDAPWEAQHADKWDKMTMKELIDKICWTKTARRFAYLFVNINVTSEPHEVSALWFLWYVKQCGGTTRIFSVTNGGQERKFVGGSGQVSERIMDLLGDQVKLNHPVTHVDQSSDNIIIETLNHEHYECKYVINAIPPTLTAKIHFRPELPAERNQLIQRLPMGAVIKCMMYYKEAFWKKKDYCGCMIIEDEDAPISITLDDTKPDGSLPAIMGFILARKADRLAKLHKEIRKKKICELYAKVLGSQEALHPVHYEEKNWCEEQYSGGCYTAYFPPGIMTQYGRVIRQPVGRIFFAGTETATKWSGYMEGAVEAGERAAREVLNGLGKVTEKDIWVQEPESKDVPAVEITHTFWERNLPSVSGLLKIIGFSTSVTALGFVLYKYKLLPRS
Experimental for human MAO-B: (§4) To estimate MAO inhibitory activity of the compounds of Formula I at rat and human MAO-A and MAO-B, the corresponding test compound was dissolved in 100% DMSO and subsequently added to the appropriate enzyme solution containing rat liver mitochondria (rat MAO-A and -B) or recombinant human protein (for determination of human MAO-A and -B) in sodium phosphate buffer. The test sample was incubated for 30 min at room temperature prior to the addition of Amplex Red reagent (Invitrogen A12214) using for the fluorescence-based measuring of MAO inhibitory activity. The enzymatic reaction was started by the addition of the substrate p-tyramine. […] IC50 values were determined from the inhibition curves obtained using different inhibitor concentrations in triplicate within the same experiment. A four-parameter logistic equation was used to fit the dose-response curves for test compounds using a computer program.
MAO-A and MAO-B enzymatic activity of the compounds was measured in 96-well-plates using a continuous fluorescence-based assay. […] The MAO experiments were performed using the commercial assay kit Amplex Red (Invitrogen A12214). The kit was stored frozen at ≦−20° C. and protected from light before use. The Amplex Red MAO assay kit was used for the detection of H2O2 released from the biological sample. Subsequently, a reaction of 10-acetyl-3,7-dihydroxyphenoxazine (ADHP, Amplex Red reagent) with H2O2 in the presence of a peroxidase (horse-radish peroxidase-coupled reaction, HRP) led to the production of resorufin. […] To ensure an optimal efficiency of the Amplex Red reagent, the MAO assay's were performed at pH 7.4.
The assay was carried out in 96-well plates in a final volume of 200 μL at room temperature. According to the experiment protocol, a solution of test compound (2.0 μL) in DMSO (100%) was added to 90.0 μL of protein solution (0.3 μg prot/well, containing 6.6 μL protein and 9.993 μL phosphate buffer) and incubated for 30 min prior to the addition of 90 μL of freshly prepared Amplex Red reagent. […] The p-tyramine solution was prepared from p-tyramine hydrochloride (45 μL) in water (100 mM) and phosphate buffer (2955 μL). […] DMSO (2.0 μL) was used as a negative control.
Recombinant human MAO-B enzyme, expressed in baculovirus-infected insect cells, was purchased from Sigma-Aldrich (M7441).
Experimental for rat MAO-B: as §4
MAO enzyme-containing mitochondrial-enriched fractions of rat were obtained from male Sprague-Dawley rat livers (250-300 g, Harlan Sprague-Dawley, Dublin, Va., US). The livers (10.0 g) were dissected, given into 15.0 mL of an ice-cold 5.0 mM Hepes buffer (pH 7.4), containing 210 mM mannitol, 70 mM sucrose, 0.5 mM ethylene glycoltetraacetic acid (EGTA), and 2.0 mg/mL of bovine serum albumin (BSA), and homogenized using a glass/Teflon potter (10 ups and downs at 1100 rpm). After homogenization, the volume is adjusted to 100 mL with the same buffer. After a low speed centrifugation (10 min at 600 g; 4° C.), the supernatant was further centrifuged at 15,000 rpm for 5 min at +4° C. The resulting pellet was resuspended in 2.0 mL of a 50 mM sodium phosphate buffer (pH 7.4) and stored at −80° C. in aliquots of 1.0 mL until further use.
Assays were performed in 96-well plates in a final volume of 200 μL at room temperature. […] Test compounds (2.0 μL), dissolved in DMSO (100%), were added to 90.0 μL of mitochondrial preparation (25.0 μg prot) and incubated for 30 min prior to the addition of 90 μL of freshly prepared Amplex Red reagent, prepared as recommended in the kit from Invitrogen (A12214). For a 96-well plate, 1.0 mg of Amplex Red, dissolved in 200 μL of DMSO (100%) and 100 μL of reconstituted horse-radish peroxidase (HRP 200 U/mL, Sigma Aldrich P6782) stock solution (kit vial+1.0 mL of sodium phosphate buffer) were added to 9700 μL of sodium phosphate buffer (250 mM at pH 7.4).

As for `O=C(Nc1cc2cc[nH]c2cn1)c1ccc(F)c(F)c1` [Example 8, 3,4-difluoro-N-(1H-pyrrolo[2,3-c]pyridin-5-yl)benzamide], the IC50 at rat MAO-A was over 10000 nM; at human MAO-A it was over 10000 nM; on human MAO-B, 277 ± 12 nM.
For `O=C(Nc1cc2cc[nH]c2cn1)c1ccc(Cl)c(Cl)c1` [Example 6, 3,4-dichloro-N-(1H-pyrrolo[2,3-c]pyridin-5-yl)benzamide], the IC50 at rat MAO-B was 224 ± 17 nM; on rat MAO-A, at least 10000 nM; at human MAO-A it was under 10000 nM; at human MAO-B, 28.5 ± 2.4 nM.
The matching figures for `O=C(Nc1ccc2c(ccn2C(=O)c2ccc(Cl)c(F)c2)n1)c1ccc(Cl)c(F)c1` [Example 5, 4-chloro-N-(1-(4-chloro-3-fluorobenzoyl)-1H-pyrrolo[3,2-b]pyridin-5-yl)-3-fluorobenzamide]: 246 ± 53 nM, over 10000 nM, over 10000 nM and 27.5 ± 2 nM.
The corresponding values for `O=C(Nc1ccc2[nH]ccc2n1)c1ccc(F)c(Cl)c1` [Example 2, 3-chloro-4-fluoro-N-(1H-pyrrolo[3,2-b]pyridin-5-yl)benzamide] are 4.9 ± 0.33 nM, over 10000 nM, over 10000 nM and 3.27 ± 0.04 nM.
Turning to `O=C(Nc1ccc2[nH]ccc2n1)c1ccc(Cl)c(Cl)c1` [Example 1, 3,4-dichloro-N-(1H-pyrrolo[3,2-b]pyridin-5-yl)benzamide], the concentration for half-maximal inhibition (IC50) at rat MAO-A and at human MAO-A was over 10000 nM throughout.
Turning to `O=C(Nc1ccc2[nH]ccc2n1)c1ccc(Cl)c(F)c1` [Example 3, 4-chloro-3-fluoro-N-(1H-pyrrolo[3,2-b]pyridin-5-yl)benzamide], the IC50 on rat MAO-B was 85.5 ± 5.8 nM; on rat MAO-A, over 10000 nM; at human MAO-A it was over 10000 nM; at human MAO-B, 10.9 ± 0.75 nM.
As to `O=C(Nc1ccc2[nH]ccc2n1)c1ccc(F)c(F)c1` [Example 4, 3,4-difluoro-N-(1H-pyrrolo[3,2-b]pyridin-5-yl)benzamide], the IC50 at rat MAO-B was 153 ± 11 nM; at rat MAO-A it was over 10000 nM; on human MAO-A it was over 10000 nM; on human MAO-B, 46.1 ± 1.5 nM.
With `O=C(Nc1cc2cc[nH]c2cn1)c1ccc(F)c(Cl)c1` [Example 7, 3-chloro-4-fluoro-N-(1H-pyrrolo[2,3-c]pyridin-5-yl)benzamide], the IC50 on rat MAO-B was 158 ± 16 nM; at rat MAO-A, under 10000 nM; on human MAO-A, under 10000 nM; on human MAO-B it was 72 ± 2.6 nM.

In general, IC50 refers to the concentration that inhibits the measured activity by half.
